Experimental data as given in US5858684A, “Method of screening calcium receptor-active molecules” (priority 1995, dated 1999).

How the values were obtained:
Type in all cases: cell-based
C-cell calcium receptor = molecular target: T1, C-cell calcium receptor (Rattus norvegicus, UniProt P48442); experiment: increase in [Ca2+]i in C-cell line 44-2; conditions: 1 mM extracellular Ca2+
T1 sequence (P48442 20-1079): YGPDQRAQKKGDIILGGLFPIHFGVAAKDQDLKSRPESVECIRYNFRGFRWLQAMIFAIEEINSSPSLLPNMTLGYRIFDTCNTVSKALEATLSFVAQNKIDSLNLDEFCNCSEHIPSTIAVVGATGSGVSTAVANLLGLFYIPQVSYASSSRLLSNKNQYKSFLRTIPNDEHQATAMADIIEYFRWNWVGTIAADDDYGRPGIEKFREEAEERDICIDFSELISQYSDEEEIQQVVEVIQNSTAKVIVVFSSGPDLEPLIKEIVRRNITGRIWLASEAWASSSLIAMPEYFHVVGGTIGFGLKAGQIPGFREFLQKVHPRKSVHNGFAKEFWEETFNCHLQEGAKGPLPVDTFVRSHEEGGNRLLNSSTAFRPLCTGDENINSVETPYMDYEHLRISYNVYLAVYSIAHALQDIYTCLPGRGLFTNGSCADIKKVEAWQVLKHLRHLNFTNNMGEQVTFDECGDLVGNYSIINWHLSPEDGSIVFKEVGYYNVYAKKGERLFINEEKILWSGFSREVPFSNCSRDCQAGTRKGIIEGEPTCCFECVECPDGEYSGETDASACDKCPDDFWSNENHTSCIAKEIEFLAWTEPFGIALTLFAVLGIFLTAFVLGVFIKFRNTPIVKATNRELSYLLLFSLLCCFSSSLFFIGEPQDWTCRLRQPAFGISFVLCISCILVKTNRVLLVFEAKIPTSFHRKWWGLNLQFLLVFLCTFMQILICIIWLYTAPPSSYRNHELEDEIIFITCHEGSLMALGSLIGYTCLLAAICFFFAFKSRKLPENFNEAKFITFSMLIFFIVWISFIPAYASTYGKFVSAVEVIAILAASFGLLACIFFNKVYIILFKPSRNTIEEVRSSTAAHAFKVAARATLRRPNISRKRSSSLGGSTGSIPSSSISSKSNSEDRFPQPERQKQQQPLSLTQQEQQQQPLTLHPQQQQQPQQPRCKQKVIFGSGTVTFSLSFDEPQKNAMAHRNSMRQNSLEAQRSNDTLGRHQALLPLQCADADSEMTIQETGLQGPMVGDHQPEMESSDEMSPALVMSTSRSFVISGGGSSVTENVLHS
Source text: C-cells appear to express a calcium receptor that is structurally similar to that present on parathyroid cells (see Example 31). […] Thus, compounds in this structural series appear to activate the C-cell calcium receptor.

[1] = system: PTH secretion from human parathyroid cells; experiment: PTH secretion from human parathyroid cells; conditions: human (adenoma) parathyroid cells
Procedure: PTH secretion was measured by first suspending cells in PCB containing 0.5 mM CaCl2 and 0.1% BSA.
For human cells, a commercially available radioimmunoassay kit (INS-PTH; Nichols Institute, Los Angeles, Calif.) which recognizes intact and N-terminal human PTH was used because GW-1 antibody recognizes human PTH poorly.

[2] = molecular target: T2, calcium receptor expressed from human parathyroid cell mRNA in Xenopus oocytes (Homo sapiens, UniProt P41180); experiment: response of Xenopus oocytes injected with human parathyroid mRNA
T2 sequence (P41180 20-1078): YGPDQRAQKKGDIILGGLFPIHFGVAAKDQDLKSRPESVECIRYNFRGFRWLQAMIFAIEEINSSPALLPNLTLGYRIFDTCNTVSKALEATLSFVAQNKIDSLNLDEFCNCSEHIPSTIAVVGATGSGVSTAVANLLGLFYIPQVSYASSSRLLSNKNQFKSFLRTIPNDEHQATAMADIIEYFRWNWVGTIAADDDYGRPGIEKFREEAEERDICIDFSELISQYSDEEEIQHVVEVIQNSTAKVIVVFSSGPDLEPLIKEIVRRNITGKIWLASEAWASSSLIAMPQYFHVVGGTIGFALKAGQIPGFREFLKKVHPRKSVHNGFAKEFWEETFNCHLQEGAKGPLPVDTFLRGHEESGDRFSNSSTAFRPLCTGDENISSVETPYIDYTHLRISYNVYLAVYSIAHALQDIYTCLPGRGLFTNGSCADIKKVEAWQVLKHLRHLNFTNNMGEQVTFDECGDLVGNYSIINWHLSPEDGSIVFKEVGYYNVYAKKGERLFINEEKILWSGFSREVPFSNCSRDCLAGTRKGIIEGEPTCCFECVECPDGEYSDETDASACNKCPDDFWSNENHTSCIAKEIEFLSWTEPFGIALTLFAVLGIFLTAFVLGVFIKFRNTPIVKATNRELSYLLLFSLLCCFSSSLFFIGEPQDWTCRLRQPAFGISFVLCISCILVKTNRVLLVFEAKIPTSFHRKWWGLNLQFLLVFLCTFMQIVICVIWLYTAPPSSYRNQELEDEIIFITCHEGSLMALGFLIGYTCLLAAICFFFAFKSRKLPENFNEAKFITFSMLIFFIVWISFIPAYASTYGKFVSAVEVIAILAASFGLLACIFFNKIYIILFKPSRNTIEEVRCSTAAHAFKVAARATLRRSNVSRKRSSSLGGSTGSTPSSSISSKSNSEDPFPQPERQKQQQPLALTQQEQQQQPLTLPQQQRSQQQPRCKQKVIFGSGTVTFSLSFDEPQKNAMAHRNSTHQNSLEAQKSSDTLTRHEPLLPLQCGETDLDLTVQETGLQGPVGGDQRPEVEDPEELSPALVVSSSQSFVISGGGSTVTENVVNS
Procedure: Oocytes were injected with poly(A)^+ -enriched mRNA from human parathyroid tissue (hyperplastic glands from a case of secondary HPT).
Glass capillary tubes (1 mm diameter) were pulled to a fine tip and manually broken to achieve a tip diameter of about 15 μmeters. A droplet of mRNA (1 ng/nl in diethylpyrocarbonate (DEPC)-treated water) was placed onto […]® and drawn into the capillary tube by suction. The capillary tube was then connected to a picospritzer (WPI Instruments) and the volume of the air-pulsed droplets adjusted to deliver 50 ng of mRNA (typically 50 nl). A 35-mm culture dish with a patch of nylon stocking fixed to the bottom was used to secure the oocytes during injection of mRNA into the vegetal pole. The injected oocytes were placed into a 35-mm culture dish containing MBS, 100 μg/ml penicillin and 100 μg/ml streptomycin and incubated at 18° C. for 3 days.
Following incubation, an oocyte was placed into a 100-μl plastic chamber and superfused with MBS at a flow rate of 0.5 ml/min using a peristaltic pump. Test molecules or inorganic polycations were added by rapidly moving the tubing into different buffers. Recording and current-passing electrodes were constructed from thin-wall capillary tubing pulled to a resistance of 1-3 Mohms and filled with 3M KCl. […] Currents were recorded directly onto a strip chart recorder.
Using this screen allows one to test for an action directly on the calcium receptor. Oocytes expressing the calcium receptor also responded to several molecules active on intact parathyroid cells when screened as follows. […] This offers rather compelling evidence showing that these molecules act on the calcium receptor or on some other protein intimately associated with its function.

| SMILES | increase in [Ca2+]i in 44-2 C-cells (C-cell calcium receptor) | inhibition of PTH secretion ([1]; listed as Neomycin B) | inhibition of PTH secretion ([1]; listed as neomycin B) | response of water-injected oocytes ([2]; 10 mM, water-injected control oocytes) | concentration effective in oocytes ([2]; human parathyroid mRNA) | response of oocytes expressing calcium receptor ([2]; human parathyroid mRNA, listed as Neomycin B) | response of oocytes expressing calcium receptor ([2]; human parathyroid mRNA, listed as neomycin B) |
| --- | --- | --- | --- | --- | --- | --- | --- |
| COc1cccc([C@@H](C)NCCCc2ccccc2)c1 (single isomer, unassigned) [NPS R-467] | concentration-dependent increase |  |  |  |  |  |  |
| COc1cccc([C@@H](C)NCCCc2ccccc2Cl)c1 [NPS R-568, (R)-(+)-N-[3-(2-chlorophenyl)propyl]-amethyl-α-3-methoxybenzylamine] | concentration-dependent increase |  |  |  |  |  |  |
| NC[C@@H]1O[C@H](O[C@H]2[C@@H](O)[C@H](O[C@@H]3[C@@H](O)[C@H](N)C[C@H](N)[C@H]3O[C@H]3O[C@H](CN)[C@@H](O)[C@H](O)[C@H]3N)O[C@@H]2CO)[C@H](N)[C@@H](O)[C@@H]1O [Neomycin] |  | inhibited PTH secretion | inhibit PTH secretion | failed to cause any change in the current | 100 µM | evoked oscillatory increases | evokes oscillating increases |
